System: SARS-COV-2
Experiment: SARS-COV-2 Cytopathic Effect (CPE) reduction assay in Vero E6 cells
Assay type: cell-based
Details: Severe acute respiratory syndrome coronavirus 2, Vero C1008, 72 h

`CCC(CC)COC(=O)[C@H](C)N[P@](=O)(OC[C@H]1O[C@@](C#N)(c2ccc3c(N)ncnn23)[C@H](O)[C@@H]1O)Oc1ccccc1` [Remdesivir, reference compound] was tested, and the EC50 was 4.5 µM.

Source: US20240307507A1, “LACTOFERRIN COMPOSITIONS AND METHODS OF USE” (LACTEA THERAPEUTICS LLC, priority 2021, published 2024)
